The test system of experiment [1] is Normal human fibroblast MRC-5. Briefly: Cell based assay for accumulation of MDM2 and p53 (immunoblot). The conditions noted are these: MRC-5 cells. The method, then:
Methods: Normal human fibroblast MRC-5 were chosen to determine whether the compounds from the high throughput screening can inhibit the E3 activity of Mdm2, i.e. stabilizing MDM2 and p53 in vivo. After being seeded in 12-well tissue culture cluster overnight, the cells were treated with 50 μM of the compounds for 8 hours. They were harvested with trypsin-EDTA, washed with PBS, and lysed with RIPA buffer. Following removal of insoluble pellet by centrifugation for 20 minutes at 10000 rpm, the lysate was separated on 4-20% gradient SDS-polyacrylamide gel and transferred onto nitrocellulose membrane. The membrane was then blotted with anti-p53 antibody (DO-1), anti-MDM2 antibodies (Ab-1 and Ab-2), anti-p27 (Santa Cruz), anti-Nedd4, and anti-p21Waf1 antibody. After extensive washing with PBS containing 0.5% Triton X-100, it was incubated with HRP-labeled donkey anti-mouse antibody and visualized using enhanced chemiluminescence.
Background: In western blotting, separated proteins are transferred to a membrane and probed.

Experiment [2] relates to E1A-transformed RPE cells. Briefly: Apoptosis in E1A-transformed RPE cells. Type of experiment: cell-based, human. The conditions noted are these: FIG. 4 left. The source says: Cell-based assays include model systems where primary human epithelial cells (“normal cells”) are compared to the same cells expressing the adenovirus E1A oncogene (“transformed cells”). Activation of p53 was not toxic to normal cells, but activation of p53 in transformed cells induces p53-mediated apoptosis. High concentrations of wild type (wt) p53 protein can induce apoptosis in a variety of different tumor cells. Potential inhibitors of MDM2 would regulate the stability and function of p53 and MDM2. Preferably the assays measure number of cells undergoing apoptosis due to MDM2 induced p53 degradation in tumor cells in the presence or absence of candidate compounds as compared to normal cells in the presence or absence of candidate compounds. An increase in the number of these cells undergoing apoptosis in the presence of candidate compounds in tumor cells, as compared to normal untreated cells is indicative of a potential anti-tumor compound. […]
Apoptosis and cell death were determined by FACS analysis of sub-G1 nuclei or counting trypan blue-positive cells under microscope. Caspase activity was measured using fluorogenic substrate Ac-DEVD-AFC and CytoFluor multi-well plate reader (PerSeptive Biosystems). […]

Square brackets hold non-standard residues; d marks the D form. Peptide text beside a SMILES is read from it. Nle = CCCC[C@H](N)C(=O)O

With `CCCC[C@@H](C=O)NC(=O)[C@H](CC(C)C)NC(=O)[C@H](CC(C)C)NC(C)=O` [LLNL, reference compound] (Ac-Leu-Leu-[Nle]-aldehyde), in experiment [1] (50 μM, 8 hours), the MDM2 level entry is “accumulated MDM2, p53, and p21”; the p53 level result was “accumulated MDM2, p53, and p21”. For the same compound, in experiment [1] (FIG. 3C), the p21 level entry is “accumulated MDM2, p53, and p21”. The apoptosis result in experiment [2] is reported as “markedly increased apoptosis”.
Turning to `COc1cccc2c1C(=O)c1c(O)c3c(c(O)c1C2=O)C[C@@](O)(C(=O)CO)C[C@@H]3O[C@H]1C[C@H](N)[C@H](O)[C@H](C)O1` [adriamycin, reference compound], the p53 level result in experiment [1] (50 μM, 8 hours) is reported as “increased only p53”. For the same compound, the apoptosis entry in experiment [2] is reported as “markedly increased apoptosis”.

Values taken from US7498336B2, “Deazaflavin compounds and methods of use thereof” (The United States of America as represented by the …, priority 2003, dated 2009).
